Starred links: 1 amine or outer side, 2 acyl side, 3 side chain; linkers in the order of their positions; H or OH if unused. Positions of bridges follow the written chain, without caps; N, C: chain ends. Non-standard residues stand in square brackets, D forms with d. Residues, ends and D or L forms follow the SMILES beside them. Groups on a side chain read outwards from the residue. *: point of attachment. Ursodeoxycholyl = C[C@H](CCC(=O)*)[C@H]1CC[C@H]2[C@@H]3[C@@H](O)C[C@@H]4C[C@H](O)CC[C@]4(C)[C@H]3CC[C@]12C; Cholyl = C[C@H](CCC(=O)*)[C@H]1CC[C@H]2[C@@H]3[C@H](O)C[C@@H]4C[C@H](O)CC[C@]4(C)[C@H]3C[C@H](O)[C@]12C; X35 = O=C(Cn1cc(C[C@H](N[*:1])C(=O)[*:2])c2ccccc21)NCC(F)(F)F; X22 = O=C(Cn1cc(C[C@H](N[*:1])C(=O)[*:2])c2ccccc21)NCCC1CC1; X11 = O=C(Cn1cc(C[C@H](N[*:1])C(=O)[*:2])c2ccccc21)NCCCCCO; X7 = NCCCCNC(=O)Cn1cc(C[C@H](N[*:1])C(=O)[*:2])c2ccccc21; X32 = CCCNC(=O)Cn1cc(C[C@H](N[*:1])C(=O)[*:2])c2ccccc21; X1 = NCCNC(=O)Cn1cc(C[C@H](N[*:1])C(=O)[*:2])c2ccccc21; Pro(4R-Me) = C[C@H]1CN[C@H](C(=O)O)C1; Hyp = O=C(O)[C@@H]1C[C@@H](O)CN1; NMeNle = CCCC[C@H](NC)C(=O)O; NMeA = CN[C@@H](C)C(=O)O; Dab = NCC[C@H](N)C(=O)O; Dap = NC[C@H](N)C(=O)O
Biological target: T1, PD-1/PD-L1 (Homo sapiens, UniProt Q9NZQ7)
T1 construct: TVMV protease site (C); made in house; host or cells: HEK293T cells
Assay: PD-1/PD-L1 Homogenous Time-Resolved Fluorescence (HTRF) binding assay
Conditions: PD-L1-His 10 nM, PD-1-Ig 20 nM; read-out: HTRF IC50
Method in brief: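 Inhibitors pre-incubated 15 min with PD-L1-His (10 nM final) in dPBS, 0.1% BSA, 0.05% Tween-20, then 15 min with PD-1-Ig (20 nM final). Eu-cryptate anti-Ig (1 nM) and APC anti-His (20 nM) added, 30 min equilibration; HTRF 665/620 nm ratio. Human ECD proteins from HEK293T.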

T1 sequence (Q9NZQ7 18-239): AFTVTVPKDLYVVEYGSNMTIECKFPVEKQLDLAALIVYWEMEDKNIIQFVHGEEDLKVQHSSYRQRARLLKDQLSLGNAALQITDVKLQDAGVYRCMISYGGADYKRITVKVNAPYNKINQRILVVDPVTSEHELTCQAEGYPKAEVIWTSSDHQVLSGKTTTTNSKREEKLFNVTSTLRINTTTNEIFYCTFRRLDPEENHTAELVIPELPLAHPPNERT

SMILES	IC50 [nM]
CCCC[C@H]1C(=O)N(C)[C@@H](CCCC)C(=O)N[C@@H](CC(C)C)C(=O)N[C@H](C(=O)NCC(N)=O)CSCC(=O)N[C@@H](Cc2ccc(O)cc2)C(=O)N(C)[C@@H](C)C(=O)N[C@@H](CC(N)=O)C(=O)N2CCC[C@H]2C(=O)N[C@@H](CNC(=O)CC[C@@H](C)[C@H]2CC[C@H]3[C@@H]4[C@H](O)C[C@@H]5C[C@H](O)CC[C@]5(C)[C@H]4C[C@H](O)[C@]23C)C(=O)N[C@@H](CC(C)C)C(=O)N2C[C@H](O)C[C@H]2C(=O)N[C@@H](Cc2c[nH]c3ccccc23)C(=O)N[C@@H](CCNC(=O)CC[C@@H](C)[C@H]2CC[C@H]3[C@@H]4[C@H](O)C[C@@H]5C[C@H](O)CC[C@]5(C)[C@H]4C[C@H](O)[C@]23C)C(=O)N[C@@H](Cc2cn(CC(=O)NCCN)c3ccccc23)C(=O)N1C [Example 2021] ({CH2CO}-Y[NMeA]NP[Dap](Cholyl)L[Hyp]W[Dab](Cholyl)[X1][NMeNle][NMeNle]LCG-NH2; thioether N-14)	180
CCCC[C@H]1C(=O)N(C)[C@@H](CCCC)C(=O)N[C@@H](CC(C)C)C(=O)N[C@H](C(=O)NCC(N)=O)CSCC(=O)N[C@@H](Cc2ccc(O)cc2)C(=O)N(C)[C@@H](C)C(=O)N[C@@H](CC(N)=O)C(=O)N2CCC[C@H]2C(=O)N[C@@H](CNC(=O)CC[C@@H](C)[C@H]2CC[C@H]3[C@@H]4[C@H](O)C[C@@H]5C[C@H](O)CC[C@]5(C)[C@H]4C[C@H](O)[C@]23C)C(=O)N[C@@H](CC(C)C)C(=O)N2C[C@H](O)C[C@H]2C(=O)N[C@@H](Cc2c[nH]c3ccccc23)C(=O)N[C@@H](CCNC(=O)CC[C@@H](C)[C@H]2CC[C@H]3[C@@H]4[C@H](O)C[C@@H]5C[C@H](O)CC[C@]5(C)[C@H]4C[C@H](O)[C@]23C)C(=O)N[C@@H](Cc2cn(CC(=O)NCCC)c3ccccc23)C(=O)N1C [Example 2023] ({CH2CO}-Y[NMeA]NP[Dap](Cholyl)L[Hyp]W[Dab](Cholyl)[X32][NMeNle][NMeNle]LCG-NH2; thioether N-14)	660
CCCC[C@H]1C(=O)N(C)[C@@H](CCCC)C(=O)N[C@@H](CC(C)C)C(=O)N[C@H](C(=O)NCC(N)=O)CSCC(=O)N[C@@H](Cc2ccc(O)cc2)C(=O)N(C)[C@@H](C)C(=O)N[C@@H](CC(N)=O)C(=O)N2CCC[C@H]2C(=O)N[C@@H](CNC(=O)CNC(=O)CC[C@@H](C)[C@H]2CC[C@H]3[C@@H]4[C@H](O)C[C@@H]5C[C@H](O)CC[C@]5(C)[C@H]4C[C@H](O)[C@]23C)C(=O)N[C@@H](CC(C)C)C(=O)N2C[C@H](C)C[C@H]2C(=O)N[C@@H](Cc2c[nH]c3ccccc23)C(=O)N[C@@H](CCNC(=O)CNC(=O)CC[C@@H](C)[C@H]2CC[C@H]3[C@@H]4[C@H](O)C[C@@H]5C[C@H](O)CC[C@]5(C)[C@H]4C[C@H](O)[C@]23C)C(=O)N[C@@H](Cc2cn(CC(=O)NCCN)c3ccccc23)C(=O)N1C [Example 2026] ({CH2CO}-Y[NMeA]NP[Dap]([Gly-Cholyl])L[Pro(4R-Me)]W[Dab]([Gly-Cholyl])[X1][NMeNle][NMeNle]LCG-NH2; thioether N-14)	400
CCCC[C@H]1C(=O)N(C)[C@@H](CCCC)C(=O)N[C@@H](CC(C)C)C(=O)N[C@H](C(=O)NCC(N)=O)CSCC(=O)N[C@@H](Cc2ccc(O)cc2)C(=O)N(C)[C@@H](C)C(=O)N[C@@H](CC(N)=O)C(=O)N2CCC[C@H]2C(=O)N[C@@H](CNC(=O)CNC(=O)CC[C@@H](C)[C@H]2CC[C@H]3[C@@H]4[C@H](O)C[C@@H]5C[C@H](O)CC[C@]5(C)[C@H]4C[C@H](O)[C@]23C)C(=O)N[C@@H](CC(C)C)C(=O)N2C[C@H](C)C[C@H]2C(=O)N[C@@H](Cc2c[nH]c3ccccc23)C(=O)N[C@@H](CCNC(=O)CNC(=O)CC[C@@H](C)[C@H]2CC[C@H]3[C@@H]4[C@H](O)C[C@@H]5C[C@H](O)CC[C@]5(C)[C@H]4C[C@H](O)[C@]23C)C(=O)N[C@@H](Cc2cn(CC(=O)NCCC)c3ccccc23)C(=O)N1C [Example 2027] ({CH2CO}-Y[NMeA]NP[Dap]([Gly-Cholyl])L[Pro(4R-Me)]W[Dab]([Gly-Cholyl])[X32][NMeNle][NMeNle]LCG-NH2; thioether N-14)	990
CCCC[C@H]1C(=O)N(C)[C@@H](CCCC)C(=O)N[C@@H](CC(C)C)C(=O)N[C@H](C(=O)NCC(N)=O)CSCC(=O)N[C@@H](Cc2ccc(O)cc2)C(=O)N(C)[C@@H](C)C(=O)N[C@@H](CC(N)=O)C(=O)N2CCC[C@H]2C(=O)N[C@@H](CNC(=O)CNC(=O)CC[C@@H](C)[C@H]2CC[C@H]3[C@@H]4[C@H](O)C[C@@H]5C[C@H](O)CC[C@]5(C)[C@H]4C[C@H](O)[C@]23C)C(=O)N[C@@H](CC(C)C)C(=O)N2C[C@H](C)C[C@H]2C(=O)N[C@@H](Cc2c[nH]c3ccccc23)C(=O)N[C@@H](CCNC(=O)CNC(=O)CC[C@@H](C)[C@H]2CC[C@H]3[C@@H]4[C@H](O)C[C@@H]5C[C@H](O)CC[C@]5(C)[C@H]4C[C@H](O)[C@]23C)C(=O)N[C@@H](Cc2cn(CC(=O)NCCC3CC3)c3ccccc23)C(=O)N1C [Example 2028] ({CH2CO}-Y[NMeA]NP[Dap]([Gly-Cholyl])L[Pro(4R-Me)]W[Dab]([Gly-Cholyl])[X22][NMeNle][NMeNle]LCG-NH2; thioether N-14)	660
CCCC[C@H]1C(=O)N(C)[C@@H](CCCC)C(=O)N[C@@H](CC(C)C)C(=O)N[C@H](C(=O)NCC(N)=O)CSCC(=O)N[C@@H](Cc2ccc(O)cc2)C(=O)N(C)[C@@H](C)C(=O)N[C@@H](CC(N)=O)C(=O)N2CCC[C@H]2C(=O)N[C@@H](CNC(=O)CNC(=O)CC[C@@H](C)[C@H]2CC[C@H]3[C@@H]4[C@H](O)C[C@@H]5C[C@H](O)CC[C@]5(C)[C@H]4C[C@H](O)[C@]23C)C(=O)N[C@@H](CC(C)C)C(=O)N2C[C@H](C)C[C@H]2C(=O)N[C@@H](Cc2c[nH]c3ccccc23)C(=O)N[C@@H](CCNC(=O)CNC(=O)CC[C@@H](C)[C@H]2CC[C@H]3[C@@H]4[C@H](O)C[C@@H]5C[C@H](O)CC[C@]5(C)[C@H]4C[C@H](O)[C@]23C)C(=O)N[C@@H](Cc2cn(CC(=O)NCCCCCO)c3ccccc23)C(=O)N1C [Example 2029] ({CH2CO}-Y[NMeA]NP[Dap]([Gly-Cholyl])L[Pro(4R-Me)]W[Dab]([Gly-Cholyl])[X11][NMeNle][NMeNle]LCG-NH2; thioether N-14)	670
CCCC[C@H]1C(=O)N(C)[C@@H](CCCC)C(=O)N[C@@H](CC(C)C)C(=O)N[C@H](C(=O)NCC(N)=O)CSCC(=O)N[C@@H](Cc2ccc(O)cc2)C(=O)N(C)[C@@H](C)C(=O)N[C@@H](CC(N)=O)C(=O)N2CCC[C@H]2C(=O)N[C@@H](CNC(=O)CNC(=O)CC[C@@H](C)[C@H]2CC[C@H]3[C@@H]4[C@H](O)C[C@@H]5C[C@H](O)CC[C@]5(C)[C@H]4C[C@H](O)[C@]23C)C(=O)N[C@@H](CC(C)C)C(=O)N2C[C@H](C)C[C@H]2C(=O)N[C@@H](Cc2c[nH]c3ccccc23)C(=O)N[C@@H](CCNC(=O)CNC(=O)CC[C@@H](C)[C@H]2CC[C@H]3[C@@H]4[C@H](O)C[C@@H]5C[C@H](O)CC[C@]5(C)[C@H]4C[C@H](O)[C@]23C)C(=O)N[C@@H](Cc2cn(CC(=O)NCC(F)(F)F)c3ccccc23)C(=O)N1C [Example 2030] ({CH2CO}-Y[NMeA]NP[Dap]([Gly-Cholyl])L[Pro(4R-Me)]W[Dab]([Gly-Cholyl])[X35][NMeNle][NMeNle]LCG-NH2; thioether N-14)	5600
CCCC[C@H]1C(=O)N(C)[C@@H](CCCC)C(=O)N[C@@H](CC(C)C)C(=O)N[C@H](C(=O)NCC(N)=O)CSCC(=O)N[C@@H](Cc2ccc(O)cc2)C(=O)N(C)[C@@H](C)C(=O)N[C@@H](CC(N)=O)C(=O)N2CCC[C@H]2C(=O)N[C@@H](CNC(=O)CNC(=O)CC[C@@H](C)[C@H]2CC[C@H]3[C@@H]4[C@H](O)C[C@@H]5C[C@H](O)CC[C@]5(C)[C@H]4C[C@H](O)[C@]23C)C(=O)N[C@@H](CC(C)C)C(=O)N2C[C@H](C)C[C@H]2C(=O)N[C@@H](Cc2c[nH]c3ccccc23)C(=O)N[C@@H](CCNC(=O)CNC(=O)CC[C@@H](C)[C@H]2CC[C@H]3[C@@H]4[C@H](O)C[C@@H]5C[C@H](O)CC[C@]5(C)[C@H]4C[C@H](O)[C@]23C)C(=O)N[C@@H](Cc2cn(CC(=O)NCCCCN)c3ccccc23)C(=O)N1C [Example 2031] ({CH2CO}-Y[NMeA]NP[Dap]([Gly-Cholyl])L[Pro(4R-Me)]W[Dab]([Gly-Cholyl])[X7][NMeNle][NMeNle]LCG-NH2; thioether N-14)	490
CCCC[C@H]1C(=O)N(C)[C@@H](CCCC)C(=O)N[C@@H](CC(C)C)C(=O)N[C@H](C(=O)NCC(N)=O)CSCC(=O)N[C@@H](Cc2ccc(O)cc2)C(=O)N(C)[C@@H](C)C(=O)N[C@@H](CC(N)=O)C(=O)N2CCC[C@H]2C(=O)N[C@@H](CNC(=O)CC[C@@H](C)[C@H]2CC[C@H]3[C@@H]4[C@@H](O)C[C@@H]5C[C@H](O)CC[C@]5(C)[C@H]4CC[C@]23C)C(=O)N[C@@H](CC(C)C)C(=O)N2C[C@H](C)C[C@H]2C(=O)N[C@@H](Cc2c[nH]c3ccccc23)C(=O)N[C@@H](CCNC(=O)CC[C@@H](C)[C@H]2CC[C@H]3[C@@H]4[C@@H](O)C[C@@H]5C[C@H](O)CC[C@]5(C)[C@H]4CC[C@]23C)C(=O)N[C@@H](Cc2cn(CC(=O)NCCN)c3ccccc23)C(=O)N1C [Example 2032] ({CH2CO}-Y[NMeA]NP[Dap](Ursodeoxycholyl)L[Pro(4R-Me)]W[Dab](Ursodeoxycholyl)[X1][NMeNle][NMeNle]LCG-NH2; thioether N-14)	460

From patent US20230183292A1, “IMMUNOMODULATORS” (priority 2020, published 2023)
